Data: ChEMBL document CHEMBL1201862, “PubChem BioAssay data set” (2004)
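Values below derive from 48-hour exposures of cells grown in 96-well plates, with endpoints linearly interpolated between the two concentrations bracketing the appropriate inhibition level. The concentration for 50% growth inhibition is given as GI50.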 Calls of active or inactive are those of the source. Cut-off read from the data, not from the text of the source: active = GI50 up to about 1.1 µM and inactive = higher.

Key:
Experiment in all cases: inhibition of tumour cell growth, NCI panel, 48 h
[1] = test system: HOP-92
[2] = test system: UACC-257
[3] = test system: DU-145
[4] = test system: T47D
[5] = test system: OVCAR-5
[6] = test system: SK-OV-3
[7] = test system: UACC-62
[8] = test system: SF-539
[9] = test system: SNB-19
[10] = test system: TK-10
[11] = test system: CCRF-CEM
[12] = test system: NCI/ADR-RES
[13] = test system: HCT-116
[14] = test system: ACHN
[15] = test system: COLO 205
[16] = test system: SW-620
[17] = test system: OVCAR-8
[18] = test system: SK-MEL-28
[19] = test system: KM12
[20] = test system: MDA-N

Compound	GI50 [1]	GI50 [2]	GI50 [3]	GI50 [4]	GI50 [5]	GI50 [6]	GI50 [7]	GI50 [8]	GI50 [9]	GI50 [10]	GI50 [11]	GI50 [12]	GI50 [13]	GI50 [14]	GI50 [15]	GI50 [16]	GI50 [17]	GI50 [18]	GI50 [19]	GI50 [20]
O=S(=O)(N/C(=N\O)Nc1ccc(Cl)cc1)c1cc2ccccc2o1	13.3 µM (inactive)	19.5 µM (inactive)	47.2 µM (inactive)	> 100 µM (inactive)	23.6 µM (inactive)	19.3 µM (inactive)	10.9 µM (inactive)	33.9 µM (inactive)	34.5 µM (inactive)	28.8 µM (inactive)	22.1 µM (inactive)	19.8 µM (inactive)	11.4 µM (inactive)	19.5 µM (inactive)	22.6 µM (inactive)	23.1 µM (inactive)	18.1 µM (inactive)	17.9 µM (inactive)	13.2 µM (inactive)	38.8 µM (inactive)
COC1(OC)C[C@H](C)[C@@]23O[C@]24C2=CC(=O)C=CC2=N[C@H]3C#C/C=C\C#C[C@]14O	0.532 µM (active)	1.49 µM (inactive)	1.04 µM (active)	0.427 µM (active)	0.39 µM (active)	1.36 µM (inactive)	1.19 µM (inactive)	0.634 µM (active)	1.55 µM (inactive)	0.893 µM (active)	0.044 µM (active)	1.59 µM (inactive)	0.364 µM (active)	0.259 µM (active)	0.541 µM (active)	0.415 µM (active)	0.659 µM (active)	1.08 µM (active)	0.474 µM (active)	1.08 µM (active)
OCc1ccc2c(c1)CC1(Cc3ccc(/C=N/O)cc3C1)C2 (stereo not given)	7.74 µM (inactive)	2.19 µM (inactive)	5.24 µM (inactive)	11.3 µM (inactive)	23.7 µM (inactive)	6.05 µM (inactive)	3.24 µM (inactive)	2.72 µM (inactive)	5.35 µM (inactive)	13.4 µM (inactive)	1.96 µM (inactive)	3.32 µM (inactive)	3.26 µM (inactive)	7.08 µM (inactive)	3.1 µM (inactive)	1.68 µM (inactive)	4.45 µM (inactive)	6.82 µM (inactive)	1.29 µM (inactive)	0.328 µM (active)
CC[C@@]1(O)CC(OC2CC(N3CCOCC3)C(O)C(C)O2)c2c(O)c3c(c(O)c2[C@H]1O)C(=O)c1cccc(O)c1C3=O (stereo not given in full)	0.0429 µM (active)	0.214 µM (active)	0.084 µM (active)	0.179 µM (active)	0.371 µM (active)	0.126 µM (active)	0.0667 µM (active)	0.103 µM (active)	0.127 µM (active)	0.452 µM (active)	0.0379 µM (active)	0.145 µM (active)	0.0519 µM (active)	0.0359 µM (active)	0.0847 µM (active)	0.0469 µM (active)	0.0904 µM (active)	0.378 µM (active)	0.182 µM (active)	0.131 µM (active)
O=c1cnn(C2OC(CO)C(O)C(F)C2O)c(=O)[nH]1 (stereo not given)	> 100 µM (inactive)	> 100 µM (inactive)	> 100 µM (inactive)	> 100 µM (inactive)	> 100 µM (inactive)	> 100 µM (inactive)	> 100 µM (inactive)	> 100 µM (inactive)	> 100 µM (inactive)	> 100 µM (inactive)	> 100 µM (inactive)	> 100 µM (inactive)	> 100 µM (inactive)	> 100 µM (inactive)	> 100 µM (inactive)	> 100 µM (inactive)	> 100 µM (inactive)	> 100 µM (inactive)	> 100 µM (inactive)	> 100 µM (inactive)
CN(C)CCCNC(=O)c1cc(NC(=O)c2cc(NS(=O)(=O)c3ccc4c(c3)C(=O)c3ccccc3C4=O)cn2C)cn1C	> 100 µM (inactive)	45.8 µM (inactive)	> 100 µM (inactive)	> 100 µM (inactive)	> 100 µM (inactive)	< 0.01 µM (active)	89.9 µM (inactive)	> 100 µM (inactive)	41.5 µM (inactive)	> 100 µM (inactive)	31.7 µM (inactive)	> 100 µM (inactive)	> 100 µM (inactive)	> 100 µM (inactive)	83.9 µM (inactive)	94.8 µM (inactive)	> 100 µM (inactive)	86.5 µM (inactive)	80.7 µM (inactive)	88.5 µM (inactive)
CC(C)(CO[C@H]1C[C@H]2CC[C@@]1(C)C2(C)C)[N+](=O)[O-]	14.6 µM (inactive)	18.5 µM (inactive)	17.3 µM (inactive)	19.6 µM (inactive)	16.8 µM (inactive)	29.1 µM (inactive)	19.9 µM (inactive)	16.4 µM (inactive)	14.1 µM (inactive)	17.1 µM (inactive)	18.8 µM (inactive)	27.9 µM (inactive)	15.3 µM (inactive)	33.6 µM (inactive)	15.6 µM (inactive)	22.2 µM (inactive)	22.6 µM (inactive)	18.5 µM (inactive)	17.4 µM (inactive)	15.6 µM (inactive)
CSc1nc2cc(S(=O)(=O)N3CCCCC3)ccc2s1	> 100 µM (inactive)	48.3 µM (inactive)	> 100 µM (inactive)	> 100 µM (inactive)	> 100 µM (inactive)	> 100 µM (inactive)	> 100 µM (inactive)	> 100 µM (inactive)	> 100 µM (inactive)	> 100 µM (inactive)	> 100 µM (inactive)	> 100 µM (inactive)	> 100 µM (inactive)	> 100 µM (inactive)	> 100 µM (inactive)	> 100 µM (inactive)	> 100 µM (inactive)	> 100 µM (inactive)	> 100 µM (inactive)	> 100 µM (inactive)
O=S1(=O)N=C(SCc2c[nH]c3ccccc23)N(c2ccccc2)c2ccncc21	53.7 µM (inactive)	> 100 µM (inactive)	35.2 µM (inactive)	21.3 µM (inactive)	94.2 µM (inactive)	> 100 µM (inactive)	> 100 µM (inactive)	22.8 µM (inactive)	> 100 µM (inactive)	35.6 µM (inactive)	41.4 µM (inactive)	> 100 µM (inactive)	> 100 µM (inactive)	65.3 µM (inactive)	> 100 µM (inactive)	> 100 µM (inactive)	> 100 µM (inactive)	> 100 µM (inactive)	> 100 µM (inactive)	> 100 µM (inactive)
COC(=O)C1=C(OC(=O)/C=C/c2ccc(Cl)cc2)C(C(=O)OC)[C@]2(O)[C@@H](C(=O)OC)[C@H]1C[C@@H](c1ccccc1)[C@@H]2C(=O)OC (stereo not given in full)	2.58 µM (inactive)	26.2 µM (inactive)	7.31 µM (inactive)	5.87 µM (inactive)	17.7 µM (inactive)	29.9 µM (inactive)	7.45 µM (inactive)	4.68 µM (inactive)	6.65 µM (inactive)	> 30.3 µM (inactive)	3.31 µM (inactive)	3.52 µM (inactive)	3.53 µM (inactive)	4.74 µM (inactive)	4.43 µM (inactive)	3.97 µM (inactive)	3.95 µM (inactive)	17.3 µM (inactive)	4.89 µM (inactive)	3.58 µM (inactive)
